Reference: ChEMBL document CHEMBL1201862, “PubChem BioAssay data set” (2004)
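Compound exposure: 48 hours, 5 concentrations, 96-well plates. GI50 = concentration required for 50% inhibition of growth.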 The source made the active and inactive calls. Rule as the data show it: active = GI50 up to about 1.1 µM and inactive = higher.

Key:
Test in all cases: DTP human tumour cell line panel, 48 h
[1] = tested on: 786-0
[2] = tested on: A549
[3] = tested on: COLO 205
[4] = tested on: EKVX
[5] = tested on: Hs-578T
[6] = tested on: KM12
[7] = tested on: M14
[8] = tested on: MDA-MB-231
[9] = tested on: MOLT-4
[10] = tested on: NCI-H460
[11] = tested on: NCI-H522
[12] = tested on: NCI/ADR-RES
[13] = tested on: OVCAR-3
[14] = tested on: RPMI-8226
[15] = tested on: RXF 393
[16] = tested on: SK-OV-3
[17] = tested on: SN12C
[18] = tested on: SNB-75
[19] = tested on: UACC-62
[20] = tested on: UO-31

SMILES: C(=NCCN1CCOCC1)=NC1CCCCC1
- GI50 [1]: > 100 µM (inactive)
- GI50 [2]: > 100 µM (inactive)
- GI50 [3]: > 100 µM (inactive)
- GI50 [4]: > 100 µM (inactive)
- GI50 [5]: > 100 µM (inactive)
- GI50 [6]: > 100 µM (inactive)
- GI50 [7]: > 100 µM (inactive)
- GI50 [8]: > 100 µM (inactive)
- GI50 [9]: > 100 µM (inactive)
- GI50 [10]: > 100 µM (inactive)
- GI50 [11]: > 100 µM (inactive)
- GI50 [12]: > 100 µM (inactive)
- GI50 [13]: > 100 µM (inactive)
- GI50 [14]: > 100 µM (inactive)
- GI50 [15]: > 100 µM (inactive)
- GI50 [16]: > 100 µM (inactive)
- GI50 [17]: > 100 µM (inactive)
- GI50 [18]: > 100 µM (inactive)
- GI50 [19]: > 100 µM (inactive)
- GI50 [20]: > 100 µM (inactive)

SMILES: Cc1n(CC(C)C)c2c([n+]1C)C(=O)c1ccccc1C2=O
- GI50 [1]: 0.578 µM (active)
- GI50 [2]: 0.114 µM (active)
- GI50 [3]: < 0.0152 µM (active)
- GI50 [4]: 0.0631 µM (active)
- GI50 [5]: 0.565 µM (active)
- GI50 [6]: 0.205 µM (active)
- GI50 [7]: 0.27 µM (active)
- GI50 [8]: 0.0486 µM (active)
- GI50 [9]: 0.0478 µM (active)
- GI50 [10]: 0.135 µM (active)
- GI50 [11]: 0.0176 µM (active)
- GI50 [12]: 2.43 µM (inactive)
- GI50 [13]: < 0.01 µM (active)
- GI50 [14]: 0.0628 µM (active)
- GI50 [15]: 0.811 µM (active)
- GI50 [16]: 0.35 µM (active)
- GI50 [17]: 0.0255 µM (active)
- GI50 [18]: 0.416 µM (active)
- GI50 [19]: 0.198 µM (active)
- GI50 [20]: 1.29 µM (inactive)

SMILES: CC(C)(C)OC(=O)NCC(=O)N1CCCN(C(=O)CNC(=O)OC(C)(C)C)CC1
- GI50 [1]: > 100 µM (inactive)
- GI50 [2]: > 100 µM (inactive)
- GI50 [3]: > 100 µM (inactive)
- GI50 [4]: > 100 µM (inactive)
- GI50 [5]: > 100 µM (inactive)
- GI50 [6]: > 100 µM (inactive)
- GI50 [7]: > 100 µM (inactive)
- GI50 [8]: > 100 µM (inactive)
- GI50 [9]: > 100 µM (inactive)
- GI50 [10]: > 100 µM (inactive)
- GI50 [11]: > 100 µM (inactive)
- GI50 [12]: > 100 µM (inactive)
- GI50 [13]: > 100 µM (inactive)
- GI50 [14]: > 100 µM (inactive)
- GI50 [15]: > 100 µM (inactive)
- GI50 [16]: > 100 µM (inactive)
- GI50 [17]: > 100 µM (inactive)
- GI50 [18]: > 100 µM (inactive)
- GI50 [19]: > 100 µM (inactive)
- GI50 [20]: > 100 µM (inactive)

SMILES: COc1ccc(O)c(/C(C)=N/NC(=S)N(C)C)c1
- GI50 [1]: > 40.7 µM (inactive)
- GI50 [2]: 23.4 µM (inactive)
- GI50 [3]: 21.3 µM (inactive)
- GI50 [4]: 31.9 µM (inactive)
- GI50 [5]: > 100 µM (inactive)
- GI50 [6]: 42 µM (inactive)
- GI50 [7]: 11.8 µM (inactive)
- GI50 [8]: > 20.6 µM (inactive)
- GI50 [9]: 36.5 µM (inactive)
- GI50 [10]: 15.6 µM (inactive)
- GI50 [11]: 1.33 µM (inactive)
- GI50 [12]: 18 µM (inactive)
- GI50 [13]: 37.3 µM (inactive)
- GI50 [14]: 47.4 µM (inactive)
- GI50 [15]: > 100 µM (inactive)
- GI50 [16]: 42.3 µM (inactive)
- GI50 [17]: > 44.2 µM (inactive)
- GI50 [18]: 75.5 µM (inactive)
- GI50 [19]: 26.1 µM (inactive)
- GI50 [20]: 17.7 µM (inactive)

SMILES: O=C(c1ccc(F)cc1)c1cccc(C(=O)c2ccc(F)cc2)n1
- GI50 [1]: 37.8 µM (inactive)
- GI50 [2]: 69.2 µM (inactive)
- GI50 [3]: > 100 µM (inactive)
- GI50 [4]: > 100 µM (inactive)
- GI50 [5]: 25.6 µM (inactive)
- GI50 [6]: > 100 µM (inactive)
- GI50 [7]: 62.2 µM (inactive)
- GI50 [8]: 38.6 µM (inactive)
- GI50 [9]: > 100 µM (inactive)
- GI50 [10]: > 100 µM (inactive)
- GI50 [11]: 20.3 µM (inactive)
- GI50 [12]: 90.8 µM (inactive)
- GI50 [13]: > 100 µM (inactive)
- GI50 [14]: > 100 µM (inactive)
- GI50 [15]: 5.56 µM (inactive)
- GI50 [16]: 1.53 µM (inactive)
- GI50 [17]: 55.2 µM (inactive)
- GI50 [18]: 12.6 µM (inactive)
- GI50 [19]: 44.2 µM (inactive)
- GI50 [20]: 45.3 µM (inactive)

SMILES: COc1cc2c(cc1O)C(Cc1ccc(OCc3ccccc3)c(OCc3ccccc3)c1)N(C(=O)NCCc1ccccc1)CC2 (stereo not given)
- GI50 [1]: > 100 µM (inactive)
- GI50 [2]: 20.8 µM (inactive)
- GI50 [3]: > 100 µM (inactive)
- GI50 [4]: > 100 µM (inactive)
- GI50 [5]: > 100 µM (inactive)
- GI50 [6]: > 100 µM (inactive)
- GI50 [7]: > 100 µM (inactive)
- GI50 [8]: > 100 µM (inactive)
- GI50 [9]: > 100 µM (inactive)
- GI50 [10]: > 100 µM (inactive)
- GI50 [11]: 2.88 µM (inactive)
- GI50 [12]: > 100 µM (inactive)
- GI50 [13]: > 100 µM (inactive)
- GI50 [14]: 10.4 µM (inactive)
- GI50 [15]: > 100 µM (inactive)
- GI50 [16]: > 100 µM (inactive)
- GI50 [17]: > 100 µM (inactive)
- GI50 [18]: > 100 µM (inactive)
- GI50 [19]: > 100 µM (inactive)
- GI50 [20]: 69 µM (inactive)

SMILES: O=C1C(Br)=CC2(C=C1Br)CCNC1=C2C2=NCCc3c[nH]c(c32)C1=O
- GI50 [1]: 0.124 µM (active)
- GI50 [2]: 0.951 µM (active)
- GI50 [3]: 0.0149 µM (active)
- GI50 [4]: 0.231 µM (active)
- GI50 [5]: 0.445 µM (active)
- GI50 [6]: 0.516 µM (active)
- GI50 [7]: 0.0703 µM (active)
- GI50 [8]: 0.149 µM (active)
- GI50 [9]: 0.0315 µM (active)
- GI50 [10]: 0.548 µM (active)
- GI50 [11]: 0.0176 µM (active)
- GI50 [12]: 0.164 µM (active)
- GI50 [13]: 0.0249 µM (active)
- GI50 [14]: 0.0355 µM (active)
- GI50 [15]: 0.0681 µM (active)
- GI50 [16]: 1.9 µM (inactive)
- GI50 [17]: 0.146 µM (active)
- GI50 [18]: 0.973 µM (active)
- GI50 [19]: 0.0933 µM (active)
- GI50 [20]: 0.308 µM (active)

SMILES: CCn1c(SCC(=O)N/N=C2\SCC(=O)N2c2ccc(C)cc2)nc2ccccc2c1=O
- GI50 [1]: 19.1 µM (inactive)
- GI50 [2]: 21.2 µM (inactive)
- GI50 [3]: 50.9 µM (inactive)
- GI50 [4]: 22.4 µM (inactive)
- GI50 [5]: 16.4 µM (inactive)
- GI50 [6]: 19.4 µM (inactive)
- GI50 [7]: 36.1 µM (inactive)
- GI50 [8]: 20.2 µM (inactive)
- GI50 [9]: 25.9 µM (inactive)
- GI50 [10]: 24.7 µM (inactive)
- GI50 [11]: 22.4 µM (inactive)
- GI50 [12]: 19.8 µM (inactive)
- GI50 [13]: 21.4 µM (inactive)
- GI50 [14]: 18.5 µM (inactive)
- GI50 [15]: 17.4 µM (inactive)
- GI50 [16]: 19.7 µM (inactive)
- GI50 [17]: 27 µM (inactive)
- GI50 [18]: 17.1 µM (inactive)
- GI50 [19]: 15.3 µM (inactive)
- GI50 [20]: 15.1 µM (inactive)

SMILES: C/C1=C\CC[C@@]2(C)O[C@@H]2C[C@@H]2[C@H](C/C(C)=C/CC1)OC(=O)C21CCN=N1 (stereo not given in full)
- GI50 [1]: > 75 µM (inactive)
- GI50 [2]: 51.2 µM (inactive)
- GI50 [3]: > 75 µM (inactive)
- GI50 [4]: > 75 µM (inactive)
- GI50 [5]: 38 µM (inactive)
- GI50 [6]: > 75 µM (inactive)
- GI50 [7]: > 75 µM (inactive)
- GI50 [8]: > 75 µM (inactive)
- GI50 [9]: 16 µM (inactive)
- GI50 [10]: 39.6 µM (inactive)
- GI50 [11]: 72.4 µM (inactive)
- GI50 [12]: > 75 µM (inactive)
- GI50 [13]: > 75 µM (inactive)
- GI50 [14]: 31.3 µM (inactive)
- GI50 [15]: > 75 µM (inactive)
- GI50 [16]: > 75 µM (inactive)
- GI50 [17]: 37.8 µM (inactive)
- GI50 [18]: 25.9 µM (inactive)
- GI50 [19]: > 75 µM (inactive)
- GI50 [20]: > 75 µM (inactive)

SMILES: COc1ccc2nc3c(c(N)c2c1)C1CCC3C1(C)C (stereo not given)
- GI50 [1]: 22.5 µM (inactive)
- GI50 [2]: 70.5 µM (inactive)
- GI50 [3]: 17.1 µM (inactive)
- GI50 [4]: 30.6 µM (inactive)
- GI50 [5]: > 100 µM (inactive)
- GI50 [6]: 42.9 µM (inactive)
- GI50 [7]: 17.8 µM (inactive)
- GI50 [8]: 24 µM (inactive)
- GI50 [9]: 46.9 µM (inactive)
- GI50 [10]: 31.2 µM (inactive)
- GI50 [11]: 34.7 µM (inactive)
- GI50 [12]: > 100 µM (inactive)
- GI50 [13]: 31.9 µM (inactive)
- GI50 [14]: 23.5 µM (inactive)
- GI50 [15]: 23 µM (inactive)
- GI50 [16]: 28.1 µM (inactive)
- GI50 [17]: 52.1 µM (inactive)
- GI50 [18]: 29.6 µM (inactive)
- GI50 [19]: 15.3 µM (inactive)
- GI50 [20]: 47.4 µM (inactive)
